Data from the kinase profiling compilation of Christmann-Franck et al. (2016).
Several values for one entry are separate records, joined by “and”; a condition that tells them apart may be missing. Identical values can stand only once.

The compounds below were run against GRK7 (human) (UniProt Q8WTQ7) (assay: radiometric filter-binding kinase assay, Kinase HotSpot). Details: compound 0.5 µM; ATP 10 µM.

Compound	residual activity [%]
CCOc1cc2ncnc(Nc3cccc(Br)c3)c2cc1OCC	102
O=C1NC(=O)c2c1c1c3ccccc3[nH]c1c1[nH]c3cc(Br)ccc3c21	98.2
O=c1[nH]c2ccccc2n1C1CCN(Cc2ccc(-c3nc4cc5[nH]cnc5cc4nc3-c3ccccc3)cc2)CC1	98.5
COc1cccc(-c2cc(=O)c3ccccc3o2)c1N	103

What follows are compounds tested against RPS6KA1 KD1 KD2 (human) (UniProt Q15418) in the same assay as above. Details: compound 0.5 µM; ATP 10 µM.

Compound	residual activity [%]
CCOc1cc2ncnc(Nc3cccc(Br)c3)c2cc1OCC	82.8
O=C1NC(=O)c2c1c1c3ccccc3[nH]c1c1[nH]c3cc(Br)ccc3c21	58.4
O=c1[nH]c2ccccc2n1C1CCN(Cc2ccc(-c3nc4cc5[nH]cnc5cc4nc3-c3ccccc3)cc2)CC1	101
COc1cccc(-c2cc(=O)c3ccccc3o2)c1N	92.7

What follows are compounds tested against STK17A (human) (UniProt Q9UEE5) in the same assay as above. Details: compound 0.5 µM; ATP 10 µM.

Compound	residual activity [%]
CCOc1cc2ncnc(Nc3cccc(Br)c3)c2cc1OCC	98.9
O=C1NC(=O)c2c1c1c3ccccc3[nH]c1c1[nH]c3cc(Br)ccc3c21	29.5
O=c1[nH]c2ccccc2n1C1CCN(Cc2ccc(-c3nc4cc5[nH]cnc5cc4nc3-c3ccccc3)cc2)CC1	98.2
COc1cccc(-c2cc(=O)c3ccccc3o2)c1N	96.9

What follows are compounds tested against PLK1 (human) (UniProt P53350) in the same assay as above. Details: compound 0.5 µM; ATP 10 µM.

Compound	residual activity [%]
CCOc1cc2ncnc(Nc3cccc(Br)c3)c2cc1OCC	93.6
O=C1NC(=O)c2c1c1c3ccccc3[nH]c1c1[nH]c3cc(Br)ccc3c21	91.2
O=c1[nH]c2ccccc2n1C1CCN(Cc2ccc(-c3nc4cc5[nH]cnc5cc4nc3-c3ccccc3)cc2)CC1	109
COc1cccc(-c2cc(=O)c3ccccc3o2)c1N	88.2

What follows are compounds tested against IKBKB (human) (UniProt O14920) in the same assay as above. Details: compound 0.5 µM; ATP 10 µM.

Compound	residual activity [%]
CCOc1cc2ncnc(Nc3cccc(Br)c3)c2cc1OCC	102
O=C1NC(=O)c2c1c1c3ccccc3[nH]c1c1[nH]c3cc(Br)ccc3c21	92.2
O=c1[nH]c2ccccc2n1C1CCN(Cc2ccc(-c3nc4cc5[nH]cnc5cc4nc3-c3ccccc3)cc2)CC1	101
COc1cccc(-c2cc(=O)c3ccccc3o2)c1N	92.5

These compounds were tested against ALK (human) (UniProt Q9UM73) in the same assay as above. Details: compound 0.5 µM; ATP 10 µM.
Sequence of ALK (human) (Q9UM73 whole entry, looked up): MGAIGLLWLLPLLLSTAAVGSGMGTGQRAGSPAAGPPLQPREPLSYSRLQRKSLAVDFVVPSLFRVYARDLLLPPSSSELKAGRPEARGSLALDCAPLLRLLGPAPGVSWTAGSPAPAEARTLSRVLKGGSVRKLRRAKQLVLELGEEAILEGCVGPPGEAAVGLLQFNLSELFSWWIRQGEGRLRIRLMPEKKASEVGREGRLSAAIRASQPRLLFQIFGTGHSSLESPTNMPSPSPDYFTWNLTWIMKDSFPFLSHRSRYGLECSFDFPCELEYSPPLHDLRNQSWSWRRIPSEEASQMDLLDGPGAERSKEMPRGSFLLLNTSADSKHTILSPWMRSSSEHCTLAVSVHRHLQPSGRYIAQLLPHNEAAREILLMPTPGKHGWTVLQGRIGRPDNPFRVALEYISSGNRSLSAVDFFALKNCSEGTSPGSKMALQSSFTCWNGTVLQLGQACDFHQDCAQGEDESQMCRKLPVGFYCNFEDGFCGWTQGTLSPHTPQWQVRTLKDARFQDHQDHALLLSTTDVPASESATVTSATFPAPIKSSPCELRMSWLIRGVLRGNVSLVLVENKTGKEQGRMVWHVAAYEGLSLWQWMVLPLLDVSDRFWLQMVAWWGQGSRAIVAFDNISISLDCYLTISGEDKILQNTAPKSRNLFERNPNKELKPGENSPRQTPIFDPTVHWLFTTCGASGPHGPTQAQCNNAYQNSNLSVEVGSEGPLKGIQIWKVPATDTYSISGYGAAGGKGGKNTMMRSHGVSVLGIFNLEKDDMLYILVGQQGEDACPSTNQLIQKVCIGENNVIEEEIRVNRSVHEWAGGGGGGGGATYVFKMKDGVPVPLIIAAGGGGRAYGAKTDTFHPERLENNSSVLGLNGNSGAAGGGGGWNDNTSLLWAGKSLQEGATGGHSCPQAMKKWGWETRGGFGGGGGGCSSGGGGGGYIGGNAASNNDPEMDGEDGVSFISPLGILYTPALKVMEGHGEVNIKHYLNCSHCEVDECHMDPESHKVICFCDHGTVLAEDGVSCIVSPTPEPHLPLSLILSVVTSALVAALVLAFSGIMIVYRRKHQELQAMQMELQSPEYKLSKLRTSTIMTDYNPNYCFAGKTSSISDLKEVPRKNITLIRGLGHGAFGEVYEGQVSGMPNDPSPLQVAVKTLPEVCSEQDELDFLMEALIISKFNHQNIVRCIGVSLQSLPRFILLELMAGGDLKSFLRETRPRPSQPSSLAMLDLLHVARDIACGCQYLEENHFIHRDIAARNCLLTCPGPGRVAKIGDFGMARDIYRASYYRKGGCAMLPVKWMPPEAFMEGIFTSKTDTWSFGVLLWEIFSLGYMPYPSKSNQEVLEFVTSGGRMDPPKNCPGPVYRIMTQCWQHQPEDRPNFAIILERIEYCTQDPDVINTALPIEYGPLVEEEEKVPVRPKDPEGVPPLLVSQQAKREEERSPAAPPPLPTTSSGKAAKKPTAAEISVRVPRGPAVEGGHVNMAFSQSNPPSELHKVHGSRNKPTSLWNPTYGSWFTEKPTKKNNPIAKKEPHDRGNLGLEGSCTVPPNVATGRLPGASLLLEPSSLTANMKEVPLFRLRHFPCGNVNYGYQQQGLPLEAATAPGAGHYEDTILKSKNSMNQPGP

Compound	residual activity [%]
CCOc1cc2ncnc(Nc3cccc(Br)c3)c2cc1OCC	85.8
O=C1NC(=O)c2c1c1c3ccccc3[nH]c1c1[nH]c3cc(Br)ccc3c21	94
O=c1[nH]c2ccccc2n1C1CCN(Cc2ccc(-c3nc4cc5[nH]cnc5cc4nc3-c3ccccc3)cc2)CC1	106
COc1cccc(-c2cc(=O)c3ccccc3o2)c1N	84.1

What follows are compounds tested against ACVRL1 (human) (UniProt P37023) in the same assay as above. Details: compound 0.5 µM; ATP 10 µM.

Compound	residual activity [%]
CCOc1cc2ncnc(Nc3cccc(Br)c3)c2cc1OCC	103
O=C1NC(=O)c2c1c1c3ccccc3[nH]c1c1[nH]c3cc(Br)ccc3c21	109
O=c1[nH]c2ccccc2n1C1CCN(Cc2ccc(-c3nc4cc5[nH]cnc5cc4nc3-c3ccccc3)cc2)CC1	105
COc1cccc(-c2cc(=O)c3ccccc3o2)c1N	93.5

These compounds were tested against EPHA1 (human) (UniProt P21709) in the same assay as above. Details: compound 0.5 µM; ATP 10 µM.

Compound	residual activity [%]
CCOc1cc2ncnc(Nc3cccc(Br)c3)c2cc1OCC	84.7
O=C1NC(=O)c2c1c1c3ccccc3[nH]c1c1[nH]c3cc(Br)ccc3c21	98.1
O=c1[nH]c2ccccc2n1C1CCN(Cc2ccc(-c3nc4cc5[nH]cnc5cc4nc3-c3ccccc3)cc2)CC1	84.4
COc1cccc(-c2cc(=O)c3ccccc3o2)c1N	99.7

The compounds below were run against CAMKK2 (human) (UniProt Q96RR4) in the same assay as above. Details: compound 0.5 µM; ATP 10 µM.

Compound	residual activity [%]
CCOc1cc2ncnc(Nc3cccc(Br)c3)c2cc1OCC	101
O=C1NC(=O)c2c1c1c3ccccc3[nH]c1c1[nH]c3cc(Br)ccc3c21	48.1
O=c1[nH]c2ccccc2n1C1CCN(Cc2ccc(-c3nc4cc5[nH]cnc5cc4nc3-c3ccccc3)cc2)CC1	112
COc1cccc(-c2cc(=O)c3ccccc3o2)c1N	92.5

Each compound was assayed against LIMK1 (human) (UniProt P53667) in the same assay as above. Details: compound 0.5 µM; ATP 10 µM.

Compound	residual activity [%]
CCOc1cc2ncnc(Nc3cccc(Br)c3)c2cc1OCC	101
O=C1NC(=O)c2c1c1c3ccccc3[nH]c1c1[nH]c3cc(Br)ccc3c21	83.5
O=c1[nH]c2ccccc2n1C1CCN(Cc2ccc(-c3nc4cc5[nH]cnc5cc4nc3-c3ccccc3)cc2)CC1	110
COc1cccc(-c2cc(=O)c3ccccc3o2)c1N	96.1

Each compound was assayed against PAK1 (human) (UniProt Q13153) in the same assay as above. Details: compound 0.5 µM; ATP 10 µM.

Compound	residual activity [%]
CCOc1cc2ncnc(Nc3cccc(Br)c3)c2cc1OCC	95.2
O=C1NC(=O)c2c1c1c3ccccc3[nH]c1c1[nH]c3cc(Br)ccc3c21	87.8
O=c1[nH]c2ccccc2n1C1CCN(Cc2ccc(-c3nc4cc5[nH]cnc5cc4nc3-c3ccccc3)cc2)CC1	90.6
COc1cccc(-c2cc(=O)c3ccccc3o2)c1N	97.5

What follows are compounds tested against WNK2 (human) (UniProt Q9Y3S1) in the same assay as above. Details: compound 0.5 µM; ATP 10 µM.

Compound	residual activity [%]
CCOc1cc2ncnc(Nc3cccc(Br)c3)c2cc1OCC	95.8
O=C1NC(=O)c2c1c1c3ccccc3[nH]c1c1[nH]c3cc(Br)ccc3c21	92.1
O=c1[nH]c2ccccc2n1C1CCN(Cc2ccc(-c3nc4cc5[nH]cnc5cc4nc3-c3ccccc3)cc2)CC1	115
COc1cccc(-c2cc(=O)c3ccccc3o2)c1N	122

Each compound was assayed against SLK (human) (UniProt Q9H2G2) in the same assay as above. Details: compound 0.5 µM; ATP 10 µM.
Sequence of SLK (human) (Q9H2G2 whole entry, looked up): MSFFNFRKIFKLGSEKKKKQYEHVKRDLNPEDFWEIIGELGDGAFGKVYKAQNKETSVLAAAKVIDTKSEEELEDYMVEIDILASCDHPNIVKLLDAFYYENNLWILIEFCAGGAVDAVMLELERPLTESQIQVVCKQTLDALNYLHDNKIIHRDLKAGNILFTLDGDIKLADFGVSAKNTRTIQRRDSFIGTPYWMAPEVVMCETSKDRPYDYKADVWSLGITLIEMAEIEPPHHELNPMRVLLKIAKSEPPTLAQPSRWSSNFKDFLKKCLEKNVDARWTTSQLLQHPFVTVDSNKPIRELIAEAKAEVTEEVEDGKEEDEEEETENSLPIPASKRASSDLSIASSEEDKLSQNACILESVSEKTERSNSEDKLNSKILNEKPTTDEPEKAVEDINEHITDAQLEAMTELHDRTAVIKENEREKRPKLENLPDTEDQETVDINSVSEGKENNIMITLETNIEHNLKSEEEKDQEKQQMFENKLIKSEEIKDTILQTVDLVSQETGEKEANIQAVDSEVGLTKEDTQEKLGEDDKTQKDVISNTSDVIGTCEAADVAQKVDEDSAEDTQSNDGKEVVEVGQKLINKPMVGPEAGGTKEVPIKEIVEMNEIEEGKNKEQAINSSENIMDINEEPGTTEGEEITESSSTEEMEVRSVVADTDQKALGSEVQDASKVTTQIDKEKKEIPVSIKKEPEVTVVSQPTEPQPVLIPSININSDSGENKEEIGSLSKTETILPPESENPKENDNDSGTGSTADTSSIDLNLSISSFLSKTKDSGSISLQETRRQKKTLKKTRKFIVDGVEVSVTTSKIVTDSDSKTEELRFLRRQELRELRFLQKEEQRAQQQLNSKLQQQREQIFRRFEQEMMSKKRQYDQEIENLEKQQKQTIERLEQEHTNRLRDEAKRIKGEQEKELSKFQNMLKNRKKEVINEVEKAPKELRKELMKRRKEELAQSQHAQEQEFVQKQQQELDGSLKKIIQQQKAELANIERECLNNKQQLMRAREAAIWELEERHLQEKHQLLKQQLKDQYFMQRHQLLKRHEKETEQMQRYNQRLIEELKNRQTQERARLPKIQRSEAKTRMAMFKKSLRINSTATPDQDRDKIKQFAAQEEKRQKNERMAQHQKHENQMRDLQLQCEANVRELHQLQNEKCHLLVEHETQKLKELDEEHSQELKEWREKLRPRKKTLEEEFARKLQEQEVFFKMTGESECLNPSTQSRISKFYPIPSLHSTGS

Compound	residual activity [%]
CCOc1cc2ncnc(Nc3cccc(Br)c3)c2cc1OCC	64.8
O=C1NC(=O)c2c1c1c3ccccc3[nH]c1c1[nH]c3cc(Br)ccc3c21	90.9
O=c1[nH]c2ccccc2n1C1CCN(Cc2ccc(-c3nc4cc5[nH]cnc5cc4nc3-c3ccccc3)cc2)CC1	97.7
COc1cccc(-c2cc(=O)c3ccccc3o2)c1N	102

Each compound was assayed against DAPK1 (human) (UniProt P53355) in the same assay as above. Details: compound 0.5 µM; ATP 10 µM.
Sequence of DAPK1 (human) (P53355 whole entry, looked up): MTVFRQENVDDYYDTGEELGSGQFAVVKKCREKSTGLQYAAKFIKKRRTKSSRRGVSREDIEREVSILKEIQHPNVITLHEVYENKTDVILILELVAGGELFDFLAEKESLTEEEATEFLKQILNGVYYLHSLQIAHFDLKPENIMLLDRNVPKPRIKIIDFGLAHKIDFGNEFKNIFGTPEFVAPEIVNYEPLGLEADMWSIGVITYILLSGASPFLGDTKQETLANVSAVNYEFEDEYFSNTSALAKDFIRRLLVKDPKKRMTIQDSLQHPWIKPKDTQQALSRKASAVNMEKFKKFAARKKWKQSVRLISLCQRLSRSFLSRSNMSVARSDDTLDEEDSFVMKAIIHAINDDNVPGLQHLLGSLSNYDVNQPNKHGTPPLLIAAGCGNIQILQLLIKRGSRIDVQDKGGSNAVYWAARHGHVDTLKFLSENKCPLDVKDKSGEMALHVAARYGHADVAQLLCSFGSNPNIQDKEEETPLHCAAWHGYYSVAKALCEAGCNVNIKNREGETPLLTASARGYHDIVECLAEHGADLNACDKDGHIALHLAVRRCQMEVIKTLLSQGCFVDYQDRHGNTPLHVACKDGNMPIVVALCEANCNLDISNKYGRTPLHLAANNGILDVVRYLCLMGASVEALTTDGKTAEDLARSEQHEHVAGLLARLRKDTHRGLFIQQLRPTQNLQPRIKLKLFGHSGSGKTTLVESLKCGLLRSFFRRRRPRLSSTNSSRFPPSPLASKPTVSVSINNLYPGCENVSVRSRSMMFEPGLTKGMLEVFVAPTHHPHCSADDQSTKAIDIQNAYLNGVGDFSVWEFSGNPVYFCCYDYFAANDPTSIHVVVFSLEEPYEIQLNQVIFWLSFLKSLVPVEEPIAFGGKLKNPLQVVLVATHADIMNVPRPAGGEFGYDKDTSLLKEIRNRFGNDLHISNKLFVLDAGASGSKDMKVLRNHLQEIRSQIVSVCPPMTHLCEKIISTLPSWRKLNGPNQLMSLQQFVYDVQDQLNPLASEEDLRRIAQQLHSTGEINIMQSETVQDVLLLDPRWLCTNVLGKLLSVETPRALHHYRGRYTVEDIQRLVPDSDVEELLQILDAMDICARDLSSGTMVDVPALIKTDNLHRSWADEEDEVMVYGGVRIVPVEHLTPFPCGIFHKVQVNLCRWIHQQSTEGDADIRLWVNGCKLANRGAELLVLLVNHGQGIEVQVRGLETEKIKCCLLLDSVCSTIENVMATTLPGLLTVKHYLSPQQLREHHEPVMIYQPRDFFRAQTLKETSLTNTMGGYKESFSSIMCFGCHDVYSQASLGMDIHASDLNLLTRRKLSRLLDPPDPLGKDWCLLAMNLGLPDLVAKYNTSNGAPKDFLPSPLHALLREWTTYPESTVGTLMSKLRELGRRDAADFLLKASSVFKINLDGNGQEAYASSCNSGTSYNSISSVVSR

Compound	residual activity [%]
CCOc1cc2ncnc(Nc3cccc(Br)c3)c2cc1OCC	77.4
O=C1NC(=O)c2c1c1c3ccccc3[nH]c1c1[nH]c3cc(Br)ccc3c21	73.5
O=c1[nH]c2ccccc2n1C1CCN(Cc2ccc(-c3nc4cc5[nH]cnc5cc4nc3-c3ccccc3)cc2)CC1	82.9
COc1cccc(-c2cc(=O)c3ccccc3o2)c1N	90.9

Each compound was assayed against LYN (human) (UniProt P07948) in the same assay as above. Details: compound 0.5 µM; ATP 10 µM.

Compound	residual activity
CCOc1cc2ncnc(Nc3cccc(Br)c3)c2cc1OCC	32.1% and 49.5%
O=C1NC(=O)c2c1c1c3ccccc3[nH]c1c1[nH]c3cc(Br)ccc3c21	92.1% and 93.2%
O=c1[nH]c2ccccc2n1C1CCN(Cc2ccc(-c3nc4cc5[nH]cnc5cc4nc3-c3ccccc3)cc2)CC1	102% and 116%
COc1cccc(-c2cc(=O)c3ccccc3o2)c1N	94.6% and 98.7%

Each compound was assayed against BRSK1 (human) (UniProt Q8TDC3) in the same assay as above. Details: compound 0.5 µM; ATP 10 µM.
Sequence of BRSK1 (human) (Q8TDC3 whole entry, looked up): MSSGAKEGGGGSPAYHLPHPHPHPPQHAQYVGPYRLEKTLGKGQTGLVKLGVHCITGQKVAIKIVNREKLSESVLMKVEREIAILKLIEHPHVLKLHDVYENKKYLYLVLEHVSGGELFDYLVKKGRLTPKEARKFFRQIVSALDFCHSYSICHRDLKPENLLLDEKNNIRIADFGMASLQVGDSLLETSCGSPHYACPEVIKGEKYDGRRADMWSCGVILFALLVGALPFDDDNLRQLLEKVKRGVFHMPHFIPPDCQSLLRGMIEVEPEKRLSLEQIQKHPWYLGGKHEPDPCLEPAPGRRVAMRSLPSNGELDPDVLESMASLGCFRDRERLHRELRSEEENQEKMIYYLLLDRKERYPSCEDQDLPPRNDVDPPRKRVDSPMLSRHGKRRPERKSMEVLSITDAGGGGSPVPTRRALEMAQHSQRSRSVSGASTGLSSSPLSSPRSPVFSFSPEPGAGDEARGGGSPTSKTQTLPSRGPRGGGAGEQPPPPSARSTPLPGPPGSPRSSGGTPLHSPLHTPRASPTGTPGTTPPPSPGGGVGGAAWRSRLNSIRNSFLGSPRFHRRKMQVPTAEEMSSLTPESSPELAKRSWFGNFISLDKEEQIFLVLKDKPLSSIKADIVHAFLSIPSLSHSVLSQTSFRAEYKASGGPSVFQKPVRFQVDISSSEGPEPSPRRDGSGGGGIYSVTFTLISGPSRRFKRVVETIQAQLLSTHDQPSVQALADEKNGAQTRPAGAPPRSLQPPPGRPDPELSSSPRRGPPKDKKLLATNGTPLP

Compound	residual activity [%]
CCOc1cc2ncnc(Nc3cccc(Br)c3)c2cc1OCC	86.1
O=C1NC(=O)c2c1c1c3ccccc3[nH]c1c1[nH]c3cc(Br)ccc3c21	21.5
O=c1[nH]c2ccccc2n1C1CCN(Cc2ccc(-c3nc4cc5[nH]cnc5cc4nc3-c3ccccc3)cc2)CC1	98.3
COc1cccc(-c2cc(=O)c3ccccc3o2)c1N	84.9

What follows are compounds tested against SRPK3 (human) (UniProt Q9UPE1) in the same assay as above. Details: compound 0.5 µM; ATP 10 µM.

Compound	residual activity [%]
CCOc1cc2ncnc(Nc3cccc(Br)c3)c2cc1OCC	93.5
O=C1NC(=O)c2c1c1c3ccccc3[nH]c1c1[nH]c3cc(Br)ccc3c21	89.2
O=c1[nH]c2ccccc2n1C1CCN(Cc2ccc(-c3nc4cc5[nH]cnc5cc4nc3-c3ccccc3)cc2)CC1	107
COc1cccc(-c2cc(=O)c3ccccc3o2)c1N	91

The compounds below were run against MAP3K5 (human) (UniProt Q99683) in the same assay as above. Details: compound 0.5 µM; ATP 10 µM.

Compound	residual activity [%]
CCOc1cc2ncnc(Nc3cccc(Br)c3)c2cc1OCC	116
O=C1NC(=O)c2c1c1c3ccccc3[nH]c1c1[nH]c3cc(Br)ccc3c21	94.9
O=c1[nH]c2ccccc2n1C1CCN(Cc2ccc(-c3nc4cc5[nH]cnc5cc4nc3-c3ccccc3)cc2)CC1	93.8
COc1cccc(-c2cc(=O)c3ccccc3o2)c1N	103

The compounds below were run against MST4 (human) (UniProt Q9P289) in the same assay as above. Details: compound 0.5 µM; ATP 10 µM.

Compound	residual activity [%]
CCOc1cc2ncnc(Nc3cccc(Br)c3)c2cc1OCC	94.9
O=C1NC(=O)c2c1c1c3ccccc3[nH]c1c1[nH]c3cc(Br)ccc3c21	80.5
O=c1[nH]c2ccccc2n1C1CCN(Cc2ccc(-c3nc4cc5[nH]cnc5cc4nc3-c3ccccc3)cc2)CC1	102
COc1cccc(-c2cc(=O)c3ccccc3o2)c1N	110

Each compound was assayed against ACVR1 (human) (UniProt Q04771) in the same assay as above. Details: compound 0.5 µM; ATP 10 µM.

Compound	residual activity [%]
CCOc1cc2ncnc(Nc3cccc(Br)c3)c2cc1OCC	97.1
O=C1NC(=O)c2c1c1c3ccccc3[nH]c1c1[nH]c3cc(Br)ccc3c21	127
O=c1[nH]c2ccccc2n1C1CCN(Cc2ccc(-c3nc4cc5[nH]cnc5cc4nc3-c3ccccc3)cc2)CC1	102
COc1cccc(-c2cc(=O)c3ccccc3o2)c1N	92.7

The compounds below were run against RPS6KA4 KD2 (human) (UniProt O75676) in the same assay as above. Details: compound 0.5 µM; ATP 10 µM.

Compound	residual activity [%]
CCOc1cc2ncnc(Nc3cccc(Br)c3)c2cc1OCC	95.4
O=C1NC(=O)c2c1c1c3ccccc3[nH]c1c1[nH]c3cc(Br)ccc3c21	75.9
O=c1[nH]c2ccccc2n1C1CCN(Cc2ccc(-c3nc4cc5[nH]cnc5cc4nc3-c3ccccc3)cc2)CC1	98.8
COc1cccc(-c2cc(=O)c3ccccc3o2)c1N	103
